The values below come from PMC3156385 (Chemical research in toxicology, 2011).

In data set [1] the target is T1, P450 1B1 (Homo sapiens, UniProt Q16678).
T1 sequence (Q16678 1-543): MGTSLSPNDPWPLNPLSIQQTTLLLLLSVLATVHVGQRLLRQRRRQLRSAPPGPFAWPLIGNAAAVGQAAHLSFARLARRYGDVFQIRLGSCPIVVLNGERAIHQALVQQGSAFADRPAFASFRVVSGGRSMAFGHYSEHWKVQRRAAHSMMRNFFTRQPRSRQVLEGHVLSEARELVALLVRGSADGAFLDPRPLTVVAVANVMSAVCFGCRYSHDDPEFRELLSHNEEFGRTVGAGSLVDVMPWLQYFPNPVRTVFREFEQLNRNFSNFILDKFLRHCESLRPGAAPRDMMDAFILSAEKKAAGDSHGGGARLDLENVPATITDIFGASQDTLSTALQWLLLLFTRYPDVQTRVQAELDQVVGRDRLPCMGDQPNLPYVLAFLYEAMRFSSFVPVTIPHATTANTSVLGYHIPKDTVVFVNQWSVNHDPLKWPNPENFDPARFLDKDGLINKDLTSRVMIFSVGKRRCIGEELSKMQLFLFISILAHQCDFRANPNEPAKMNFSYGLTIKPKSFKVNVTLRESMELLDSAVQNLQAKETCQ
The data set is described as follows: Inhibition of P450 1B1-dependent EROD activity. The format is biochemical.

Data set [2] deals with T2, P450 1A1 (Homo sapiens, UniProt P04798).
T2 sequence (P04798 1-512): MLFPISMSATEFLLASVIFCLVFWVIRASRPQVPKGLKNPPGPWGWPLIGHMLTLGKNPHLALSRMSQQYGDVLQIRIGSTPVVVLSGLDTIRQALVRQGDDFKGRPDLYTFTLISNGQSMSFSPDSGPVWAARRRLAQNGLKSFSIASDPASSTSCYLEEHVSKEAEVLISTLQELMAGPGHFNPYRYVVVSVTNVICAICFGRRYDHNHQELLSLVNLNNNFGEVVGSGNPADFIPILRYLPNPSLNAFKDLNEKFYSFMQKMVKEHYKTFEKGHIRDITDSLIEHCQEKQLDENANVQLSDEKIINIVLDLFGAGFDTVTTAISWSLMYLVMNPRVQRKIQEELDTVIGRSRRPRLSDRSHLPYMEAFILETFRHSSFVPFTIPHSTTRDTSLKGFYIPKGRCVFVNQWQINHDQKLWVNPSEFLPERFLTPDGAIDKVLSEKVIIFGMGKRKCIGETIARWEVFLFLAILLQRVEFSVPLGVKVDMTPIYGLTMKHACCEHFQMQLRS
The data set can be described thus: Inhibition of P450 1A1-dependent EROD activity. The data set is classed as biochemical.

In data set [3] the target is T3, P450 2A6 (Homo sapiens, UniProt P11509).
T3 sequence (P11509 1-494): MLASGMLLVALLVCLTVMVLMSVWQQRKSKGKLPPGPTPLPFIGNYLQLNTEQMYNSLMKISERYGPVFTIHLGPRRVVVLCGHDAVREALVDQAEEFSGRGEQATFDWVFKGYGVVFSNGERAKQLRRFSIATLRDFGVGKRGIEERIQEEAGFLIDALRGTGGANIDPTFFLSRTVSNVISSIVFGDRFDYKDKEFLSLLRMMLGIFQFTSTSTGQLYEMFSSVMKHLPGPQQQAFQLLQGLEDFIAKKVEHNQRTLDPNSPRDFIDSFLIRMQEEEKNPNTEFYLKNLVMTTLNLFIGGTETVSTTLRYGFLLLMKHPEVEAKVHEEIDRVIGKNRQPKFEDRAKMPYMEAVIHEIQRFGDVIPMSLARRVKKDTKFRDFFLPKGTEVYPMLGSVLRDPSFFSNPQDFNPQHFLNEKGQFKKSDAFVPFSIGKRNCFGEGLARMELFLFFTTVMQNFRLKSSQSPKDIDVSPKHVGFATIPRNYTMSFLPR
The data set can be described thus: Spectral binding titration with purified recombinant P450 2A6. As to conditions: for ΔAmax/Ks / ΔAmax: Type I binding, 1 µM P450; for ΔAmax: means ± SE.

Data set [4] addresses T1, P450 1B1. The data set is described as follows: Spectral binding titration with purified recombinant P450 1B1. The following applies: for ΔAmax/Ks / ΔAmax: Reverse Type I binding, 1 µM P450; for ΔAmax: means ± SE.
The target in data set [5] is T3, P450 2A6. The data set can be described thus: Inhibition of P450 2A6-dependent coumarin 7-hydroxylation. The data set is classed as biochemical.
The target in data set [6] is T4, P450 1A2 (Homo sapiens, UniProt P05177).
T4 sequence (P05177 1-516): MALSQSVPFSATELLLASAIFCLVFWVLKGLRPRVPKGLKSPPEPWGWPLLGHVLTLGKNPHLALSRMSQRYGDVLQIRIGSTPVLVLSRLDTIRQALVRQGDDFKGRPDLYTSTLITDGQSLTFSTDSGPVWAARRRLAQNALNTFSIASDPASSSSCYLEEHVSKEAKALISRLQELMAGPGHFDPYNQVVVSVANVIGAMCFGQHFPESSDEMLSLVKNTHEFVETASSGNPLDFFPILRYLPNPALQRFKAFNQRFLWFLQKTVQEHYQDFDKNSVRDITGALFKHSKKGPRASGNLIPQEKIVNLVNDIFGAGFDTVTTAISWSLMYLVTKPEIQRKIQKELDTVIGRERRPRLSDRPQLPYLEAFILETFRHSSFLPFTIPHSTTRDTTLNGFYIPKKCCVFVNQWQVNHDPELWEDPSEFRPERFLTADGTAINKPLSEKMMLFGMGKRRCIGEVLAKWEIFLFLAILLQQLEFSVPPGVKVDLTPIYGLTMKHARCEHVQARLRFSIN
The data set can be described thus: Spectral binding titration with purified recombinant P450 1A2. As to conditions: for ΔAmax/Ks / ΔAmax: Reverse Type I binding, 1 µM P450; for ΔAmax: means ± SE.

The target in data set [7] is T2, P450 1A1. The data set can be described thus: Spectral binding titration with purified recombinant P450 1A1. The following applies: for ΔAmax/Ks / ΔAmax: Reverse Type I binding, 1 µM P450; for ΔAmax: means ± SE.
Data set [8] deals with T5, P450 2A13 (Homo sapiens, UniProt Q16696).
T5 sequence (Q16696 1-494): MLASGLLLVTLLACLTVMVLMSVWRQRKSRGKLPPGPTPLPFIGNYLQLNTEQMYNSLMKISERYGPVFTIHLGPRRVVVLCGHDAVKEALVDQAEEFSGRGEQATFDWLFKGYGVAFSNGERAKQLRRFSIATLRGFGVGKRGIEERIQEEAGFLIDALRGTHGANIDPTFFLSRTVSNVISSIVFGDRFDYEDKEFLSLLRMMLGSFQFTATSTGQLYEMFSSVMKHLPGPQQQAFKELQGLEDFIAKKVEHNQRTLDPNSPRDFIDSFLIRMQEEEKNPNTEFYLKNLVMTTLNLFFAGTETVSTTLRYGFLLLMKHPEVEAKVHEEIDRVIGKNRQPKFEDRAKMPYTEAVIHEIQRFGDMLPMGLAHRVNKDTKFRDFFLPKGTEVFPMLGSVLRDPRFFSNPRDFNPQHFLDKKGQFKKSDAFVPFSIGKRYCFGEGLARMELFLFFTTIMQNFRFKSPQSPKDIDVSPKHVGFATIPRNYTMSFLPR
The data set is described as follows: Spectral binding titration with purified recombinant P450 2A13. As to conditions: for ΔAmax/Ks / ΔAmax: Type I binding, 1 µM P450; for ΔAmax: means ± SE.

In data set [9] the target is T5, P450 2A13. The data set can be described thus: Inhibition of P450 2A13-dependent coumarin 7-hydroxylation. The data set is classed as biochemical.
Data set [10] deals with T4, P450 1A2. The data set can be described thus: Inhibition of P450 1A2-dependent EROD activity. The format is biochemical.
For data set [11] the following is noted: rats; cited from earlier work.

As usually defined, the IC50 is the point on the concentration scale where inhibition reaches its midpoint. High values mean weaker potency, low ones greater potency. Broadly, the Kd is the free concentration of one partner at which half of the binding sites on the other are occupied at equilibrium, for simple one-to-one binding.

Take `N#C[Se]Cc1ccc(C[Se]C#N)cc1` [p-XSC, 1,4-phenylenebis(methylene)selenocyanate]: the IC50 came to 160 ± 9 nM against P450 1B1 [1]; 260 ± 31 nM on P450 1A1 [2]; 6200 ± 550 nM against P450 2A6 [5]; 1400 ± 210 nM against P450 2A13 [9]; 630 ± 59 nM against P450 1A2 [10]. Moreover, the Kd at P450 2A6 [3] was 14000 ± 1900 nM; on P450 1B1 [4], 3600 ± 330 nM; at P450 1A2 [6], 12000 ± 1200 nM; on P450 1A1 [7] it was 19000 ± 1600 nM; on P450 2A13 [8], 1500 ± 280 nM. The ΔAmax/Ks on P450 2A6 [3] is on record as 2.20 × 10^−3; at P450 1B1 [4], 5.83 × 10^−3; on P450 1A2 [6], 0.81 × 10^−3; on P450 1A1 [7], 0.45 × 10^−3; on P450 2A13 [8] it was 46.00 × 10^−3. The ΔAmax on P450 2A6 [3] is recorded as 31 ± 1.2 × 10^−3; on P450 1B1 [4], 21 ± 0.48 × 10^−3; at P450 1A2 [6], 9.7 ± 0.40 × 10^−3; on P450 1A1 [7] it was 8.6 ± 0.24 × 10^−3; on P450 2A13 [8], 69 ± 2.6 × 10^−3.

In the case of `N#C[Se]Cc1ccc(C[Se]C#N)cc1` [p-[^14C]XSC, 1,4-[^14C]phenylenebis(methylene)selenocyanate], in data set [11], the “cumulative percentage of radioactivity excreted in feces” value is given as 75% and the “cumulative percentage of radioactivity excreted in urine” value was 24%.

Turning to `N#C[Se]Cc1ccccc1C[Se]C#N` [o-XSC, 1,2-phenylenebis(methylene)selenocyanate], the IC50 on P450 1B1 [1] worked out at 140 ± 27 nM; on P450 1A1 [2] it was 110 ± 21 nM; at P450 2A6 [5], 2700 ± 340 nM; against P450 2A13 [9], 1200 ± 130 nM; against P450 1A2 [10], 390 ± 42 nM. For the same compound, the Kd on P450 2A6 [3] is 5100 ± 450 nM; at P450 1B1 [4] it was 4600 ± 750 nM; at P450 1A1 [7], 26000 ± 4600 nM; on P450 2A13 [8], 750 ± 44 nM. Also, the ΔAmax/Ks at P450 2A6 [3] is on record as 7.80 × 10^−3; at P450 1B1 [4], 3.30 × 10^−3; at P450 1A2 [6], 0.38 × 10^−3; on P450 1A1 [7], 0.77 × 10^−3; on P450 2A13 [8], 92.00 × 10^−3. In addition, the ΔAmax is 40 ± 0.82 × 10^−3 at P450 2A6 [3]; 15 ± 0.51 × 10^−3 at P450 1B1 [4]; 2.4 ± 0.20 × 10^−3 at P450 1A2 [6]; 20 ± 1.2 × 10^−3 on P450 1A1 [7]; 69 ± 0.49 × 10^−3 on P450 2A13 [8].
